Earlier results as cited in US20210319872A1, “DRUG AND DEVICE COMBINATION PRODUCTS WITH IMPROVED SAFETY AND EFFICACY PROFILES” (priority 2016, published 2021).
Read-outs that look alike come from different tables or passages of the source.

CN1C(=O)CN=C(c2ccccc2)c2cc(Cl)ccc21 [Valium (diazepam)]
Common side effect, Cardiovascular (in vivo): Cardiovascular: Hypotension
Common side effect, Musculoskeletal (in vivo): Musculoskeletal: Muscle weakness
Common side effect, Neurologic (in vivo): Neurologic: Ataxia, Incoordination (3%, rectal gel), Somnolence
Common side effect, Other (in vivo): Other: Fatigue
Common side effect, Respiratory (in vivo): Respiratory: Respiratory depression
Diarrhea (in vivo): Gastrointestinal: Diarrhea (4%, rectal gel)
Euphoria (in vivo): Psychiatric: Euphoria (3%, rectal gel)
Incoordination (in vivo): Neurologic: Ataxia, Incoordination (3%, rectal gel), Somnolence
Rash (in vivo): Dermatologic: Rash (3%, rectal gel)
Serious side effect, Hematologic (in vivo): Hematologic: Neutropenia

CCCCC(=O)N(Cc1ccc(-c2ccccc2-c2nnn[nH]2)cc1)[C@H](C(=O)O)C(C)C [Valsartan (Diovan)]
Common side effects, listed without incidence (in vivo): Respiratory: Cough
Dizziness (in vivo): Neurologic: Dizziness (2% to 17%), Headache (greater than 1%)
Headache (in vivo): Neurologic: Dizziness (2% to 17%), Headache (greater than 1%)
Hypotension (in vivo): Cardiovascular: Hypotension (5.5% to 6.9%)
Serum blood urea nitrogen raised (in vivo): Renal: Serum blood urea nitrogen raised (heart failure, 16.6%),

COc1ccc(C(CN(C)C)C2(O)CCCCC2)cc1 (stereo not shown) [Venlafaxine (Effexor)]
Abnormal ejaculation (in vivo): Reproductive: Abnormal ejaculation (2.2% to 19%), Erectile
Asthenia (in vivo): Neurologic: Asthenia (8% to 19%), Dizziness (11% to 23.9%),
Dizziness (in vivo): Neurologic: Asthenia (8% to 19%), Dizziness (11% to 23.9%),
Dream disorder (in vivo): Dream disorder (3% to 7%), Headache (25% to 38%), Insomnia
Erectile dysfunction (in vivo): dysfunction (2.1% to 6%), Orgasm disorder (2% to 5%)
Feeling nervous (in vivo): Psychiatric: Feeling nervous (4% to 21.3%)
Headache (in vivo): Dream disorder (3% to 7%), Headache (25% to 38%), Insomnia
Hypertension (in vivo): Cardiovascular: Hypertension (3% to 13%)
Nausea (in vivo): 22%), Nausea (21% to 58%), Xerostomia (12% to 22%)
Orgasm disorder (in vivo): dysfunction (2.1% to 6%), Orgasm disorder (2% to 5%)
Seizure (in vivo): Neurologic: Seizure (0.3%)
Sweating symptom (in vivo): Dermatologic: Sweating symptom (6.7% to 25%)
Weight loss (in vivo): Endocrine metabolic: Weight loss (3% to 47%)
Xerostomia (in vivo): 22%), Nausea (21% to 58%), Xerostomia (12% to 22%)

N#Cc1ccc2[nH]cc(CCCCN3CCN(c4ccc5oc(C(N)=O)cc5c4)CC3)c2c1 [Viibryd]
Serotonin syndrome (in vivo): 0.1%
Serious side effect, Other (listed without frequency): Drug withdrawal

Cc1nnc2n1-c1ccc(Cl)cc1C(c1ccccc1)=NC2 [Xanax (alprazolam)]
Cognitive disorder (in vivo): Neurologic: Cognitive disorder (28.8%), Confusion (1.5% to
Confusion (in vivo): Neurologic: Cognitive disorder (28.8%), Confusion (1.5% to
Constipation (in vivo): Gastrointestinal: Constipation (8.1% to 26.2%), Reduced salivation
Decrease in appetite (in vivo): Endocrine metabolic: Decrease in appetite (7.3% to 27.8%),
Fatigue (in vivo): Other: Fatigue (13.9% to 48.6%)
Increased appetite (in vivo): Increased appetite (7% to 32.7%), Weight increase (2.7% to 27.2%)
Memory impairment (in vivo): 40.1%), Lightheadedness (20.8%), Memory impairment (15.4% to
Reduced libido (in vivo): Reproductive: Reduced libido (6% to 14.4%)
Reduced salivation (in vivo): (32.8%), Xerostomia (10.2% to 14.7%)
Sedated (in vivo): 33.1%), Sedated (45.2%), Somnolence (23% to 76.8%)
Serious side effect, Dermatologic (in vivo): Dermatologic: Stevens-Johnson syndrome
Somnolence (in vivo): 33.1%), Sedated (45.2%), Somnolence (23% to 76.8%)
Weight increase (in vivo): Increased appetite (7% to 32.7%), Weight increase (2.7% to 27.2%)
Xerostomia (in vivo): (32.8%), Xerostomia (10.2% to 14.7%)

C[C@@H]1CCN(C(=O)CC#N)C[C@@H]1N(C)c1ncnc2[nH]ccc12 [Xeljanz (Jak Compounds)]
Decreased lymphocyte count (in vivo): Hematologic: Anemia, Decreased lymphocyte count (0.04%),
Headache (in vivo): Neurologic: Headache (3.4% to 4.3%)
Increased HDL level (in vivo): Endocrine metabolic: Increased HDL level (10% to 12%), Raised
Infectious disease (in vivo): Immunologic: Infectious disease (20% to 22%), Opportunistic
Nasopharyngitis (in vivo): Respiratory: Nasopharyngitis (2.8% to 3.8%), Upper respiratory
Neutropenia (in vivo): Neutropenia (0.07%)
Post-transplant lymphoproliferative disorder, Epstein Barr virus associated (in vivo): Barr virus associated (2.3%), Tuberculosis
Raised low density lipoprotein cholesterol (in vivo): low density lipoprotein cholesterol (15% to 19%)
Serious side effect, Dermatologic (in vivo): Dermatologic: Skin cancer, Non-melanoma
Serious side effect, Gastrointestinal (in vivo): Gastrointestinal: Gastrointestinal perforation
Serious side effect, Hematologic (in vivo): Hematologic: Anemia, Decreased lymphocyte count (0.04%),
Serious side effect, Hepatic (in vivo): Hepatic: Injury of liver
Serious side effect, Other (in vivo): Other: Cancer
Upper respiratory infection (in vivo): infection (3.8% to 4.5%)
Urinary tract infectious disease (in vivo): Renal: Urinary tract infectious disease (2%)

O=C(O)Cc1ccccc1Nc1c(Cl)cccc1Cl [Zorvolex]
Constipation (in vivo): Gastrointestinal: Constipation (5% to 8%), Diarrhea (6%), Nausea
Diarrhea (in vivo): Gastrointestinal: Constipation (5% to 8%), Diarrhea (6%), Nausea
Headache (in vivo): Neurologic: Headache (4% to 8%)
Nasopharyngitis (in vivo): Respiratory: Nasopharyngitis (6%), Sinusitis (3% to 5%), Upper
Nausea (in vivo): (6% to 7%)
Serious side effect, Cardiovascular (in vivo): Cardiovascular: Myocardial infarction, Thrombosis
Serious side effect, Gastrointestinal (in vivo): Gastrointestinal: Gastrointestinal hemorrhage, Gastrointestinal
Serious side effect, Immunologic (in vivo): Immunologic: Anaphylactoid reaction
Serious side effect, Neurologic (in vivo): Neurologic: Cerebrovascular accident
Serious side effect, Renal (in vivo): Renal: Acute renal failure
Serious side effect, Respiratory (in vivo): Respiratory: Bronchospasm
Sinusitis (in vivo): Respiratory: Nasopharyngitis (6%), Sinusitis (3% to 5%), Upper
Upper respiratory infection (in vivo): respiratory infection (8%)
Urinary tract infectious disease (in vivo): Renal: Urinary tract infectious disease (7%)

CC(=O)O[C@H]1CC[C@@]2(C)C(=CC[C@@H]3[C@@H]2CC[C@]2(C)C(c4cccnc4)=CC[C@@H]32)C1 [Zytiga]
ALT/SGPT level raised (in vivo): Hepatic: ALT/SGPT level raised (11.1% to 41.9%), AST/SGOT
AST/SGOT level raised (in vivo): level raised (30.6% to 37.3%), Serum bilirubin raised (6.6%)
Adrenal insufficiency (in vivo): Endocrine metabolic: Adrenal insufficiency (0.5%), Hypokalemia
Alkaline phosphatase raised (in vivo): Hepatic: Alkaline phosphatase raised (Greater than 20%)
Anemia (in vivo): Hematologic: Anemia (Greater than 20%), Lymphocytopenia, All
Cardiac dysrhythmia (in vivo): Cardiovascular: Cardiac dysrhythmia (7.2%), Cardiorespiratory
Contusion (in vivo): Dermatologic: Contusion (13.3%), Flushing (19% to 22.3%)
Cough (in vivo): Respiratory: Cough (10.6% to 17.3%), Dyspnea (11.8%)
Dyspnea (in vivo): Respiratory: Cough (10.6% to 17.3%), Dyspnea (11.8%)
Fatigue (in vivo): Other: Fatigue (39.1%)
Flushing (in vivo): Dermatologic: Contusion (13.3%), Flushing (19% to 22.3%)
Hypercholesterolemia (in vivo): Endocrine metabolic: Hypercholesterolemia (Greater than 20%),
Hyperglycemia (in vivo): Hyperglycemia (56.6%), Hypertriglyceridemia (62.5%),
Hypertriglyceridemia (in vivo): Hyperglycemia (56.6%), Hypertriglyceridemia (62.5%),
Hypokalemia (in vivo): (17.2% to 28.3%)
Hypophosphatemia (in vivo): Hypophosphatemia (23.8%)
Joint swelling (in vivo): Musculoskeletal: Joint swelling (29.5% to 30.3%)
Lymphocytopenia, All grades (in vivo): grades (38.2%)
Lymphocytopenia, Grade 3 or 4 (in vivo): Hematologic: Lymphocytopenia, Grade 3 or 4 (8.7%)
Serum bilirubin raised (in vivo): level raised (30.6% to 37.3%), Serum bilirubin raised (6.6%)
Urinary tract infectious disease (in vivo): Renal: Urinary tract infectious disease (11.5%)

COc1ccccc1OCCNCC(O)COc1cccc2[nH]c3ccccc3c12 (stereo not shown) [carvedilol, Common brand names - Coreg*]
Abnormal weight gain (in vivo): Endocrine metabolic: Abnormal weight gain (10% to 12%),
Atrioventricular block (in vivo): Cardiovascular: Atrioventricular block (greater than 1% to 3%)
Bradyarrhythmia (in vivo): Cardiovascular: Bradyarrhythmia (3% to 10%), Hypotension (1.8%
Diarrhea (in vivo): Gastrointestinal: Diarrhea (2% to 12%)
Dizziness (in vivo): Neurologic: Dizziness (6% to 33%)
Erectile dysfunction (in vivo): Reproductive: Erectile dysfunction (13.5%)
Fatigue (in vivo): Other: Fatigue (24%)
Hyperglycemia (in vivo): Hyperglycemia (5% to 12%)
Hypotension (in vivo): Cardiovascular: Bradyarrhythmia (3% to 10%), Hypotension (1.8%

CN1CC[C@]23c4c5ccc(O)c4O[C@H]2[C@@H](O)C=C[C@H]3[C@H]1C5 [morphine, reference compound]
Drowsiness or Sedation (in vivo): severe sedation and drowsiness

Contrave
Amnesia (in vivo): Neurologic: Amnesia (Less than 2%), Seizure (0.1%)
Anxiety (in vivo): Psychiatric: Anxiety (4.2%)
Cholecystitis (in vivo): Gastrointestinal: Cholecystitis (Less than 2%), Hematochezia (Less
Constipation (in vivo): Gastrointestinal: Constipation (19.2%), Diarrhea (7.1%), Nausea
Depression (in vivo): Psychiatric: Depression (6.3% to 7.1%), Mania, Psychiatric
Diarrhea (in vivo): Gastrointestinal: Constipation (19.2%), Diarrhea (7.1%), Nausea
Dizziness (in vivo): Neurologic: Dizziness (9.9%), Headache (17.6%), Insomnia (9.2%)
Erythema multiforme (in vivo): Dermatologic: Erythema multiforme (Rare), Stevens-Johnson
Headache (in vivo): Neurologic: Dizziness (9.9%), Headache (17.6%), Insomnia (9.2%)
Hypertension (in vivo): Cardiovascular: Hypertension (3.2%), Increased heart rate,
Infectious disorder of kidney (in vivo): Renal: Infectious disorder of kidney (Less than 2%), Serum
Insomnia (in vivo): Neurologic: Dizziness (9.9%), Headache (17.6%), Insomnia (9.2%)
Intervertebral disc prolapse (in vivo): Musculoskeletal: Intervertebral disc prolapse (Less than 2%)
Myocardial infarction (in vivo): Myocardial infarction (Less than 2%)
Nausea (in vivo): (32.5%), Vomiting (10.7%), Xerostomia (8.1%)
Pneumonia (in vivo): Respiratory: Pneumonia (Less than 2%)
Seizure (in vivo): Neurologic: Amnesia (Less than 2%), Seizure (0.1%)
Serious side effect, Cardiovascular (in vivo): Cardiovascular: Hypertension (3.2%), Increased heart rate,
Serious side effect, Endocrine metabolic (in vivo): Endocrine metabolic: Hypoglycemia
Serious side effect, Hepatic (in vivo): Hepatic: Hepatotoxicity
Serious side effect, Immunologic (in vivo): Immunologic: Anaphylaxis, Delayed hypersensitivity disorder
Serious side effect, Ophthalmic (in vivo): Ophthalmic: Angle-closure glaucoma
Serious side effect, Psychiatric (in vivo): Psychiatric: Depression (6.3% to 7.1%), Mania, Psychiatric
Serum creatinine raised (in vivo): creatinine raised (Less than 2%)
Stevens-Johnson syndrome (in vivo): syndrome (Rare)
Suicidal thoughts (in vivo): symptom, Suicidal thoughts (0.03%)
Vomiting (in vivo): (32.5%), Vomiting (10.7%), Xerostomia (8.1%)
Xerostomia (in vivo): (32.5%), Vomiting (10.7%), Xerostomia (8.1%)
